Measurements from the supplement of paper PMC4862054.

Tests used:
CAL-148 [1] = experiment: normalised viability (% of control), CellTiter-Blue; higher = more viable cells (about 100 = DMSO control); conditions: incubation time: 72 h
Procedure: (§1)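 DSRT, CellTiter-Blue viability, 72 h incubation. Signal is normalised to DMSO and benzethonium chloride controls. Value is the normalised response at dose 6.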

CAL-51 [2] = experiment: as above; conditions: incubation time: 72 h
Procedure: as §1

CAL-85-1 [3] = experiment: as above; conditions: incubation time: 72 h
Procedure: as §1

DU-4475 [4] = experiment: as above; conditions: incubation time: 72 h
Procedure: as §1

HDQ-P1 [5] = experiment: as above; conditions: incubation time: 72 h
Procedure: as §1

MDA-MB-453 [6] = experiment: as above; conditions: incubation time: 72 h
Procedure: as §1

BT-474 = experiment: drug sensitivity score (DSS), CellTiter-Blue viability (DSS (AUC-based score)); higher = stronger viability inhibition; extreme values may be limits of the assay; conditions: incubation time: 72 h
Procedure: (§2)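 DSRT with the CellTiter-Blue (resazurin reduction) viability readout, fluorescence 560/590 nm, 72 h incubation. Plates were normalised to DMSO and benzethonium chloride controls. DSS is computed from the area under the fitted dose-response curve (5 or 9 concentrations).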

BT-549 = experiment: as above; conditions: incubation time: 72 h
Procedure: as §2

CAL-120 = experiment: as above; conditions: incubation time: 72 h
Procedure: as §2

CAL-148 [7] = experiment: as above; conditions: incubation time: 72 h
Procedure: as §2

CAL-51 [8] = experiment: as above; conditions: incubation time: 72 h
Procedure: as §2

CAL-85-1 [9] = experiment: as above; conditions: incubation time: 72 h
Procedure: as §2

DU-4475 [10] = experiment: as above; conditions: incubation time: 72 h
Procedure: as §2

HCC1143 [11] = experiment: as above; conditions: incubation time: 72 h
Procedure: as §2

HCC1599 [12] = experiment: as above; conditions: incubation time: 72 h
Procedure: as §2

HCC1937 [13] = experiment: as above; conditions: incubation time: 72 h
Procedure: as §2

HDQ-P1 [14] = experiment: as above; conditions: incubation time: 72 h
Procedure: as §2

Hs578T = experiment: as above; conditions: incubation time: 72 h
Procedure: as §2

MDA-MB-231 = experiment: as above; conditions: incubation time: 72 h
Procedure: as §2

MDA-MB-436 = experiment: as above; conditions: incubation time: 72 h
Procedure: as §2

MDA-MB-453 [15] = experiment: as above; conditions: incubation time: 72 h
Procedure: as §2

MDA-MB-468 = experiment: as above; conditions: incubation time: 72 h
Procedure: as §2

MFM-223 = experiment: as above; conditions: incubation time: 72 h
Procedure: as §2

SK-BR-3 = experiment: as above; conditions: incubation time: 72 h
Procedure: as §2

HCC1599 [16] = conditions: 72 h
Procedure, shortened: (§3)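 To measure viability, fluorescence at 560/590 nm was read after 2.5 µl CellTiter-Blue had been added for 2 h at 37 °C. Cells from breast cancer lines had been seeded in 20 µl suspension onto 384-well plates pre-loaded with compound dissolved in 5 µl medium and kept for 72 h. EC50 comes from a fitted percent-inhibition dose-response curve censored at the highest concentration, after per-plate normalisation to vehicle and a positive kill control, Z'-factor checks, and removal of rows with zero drug sensitivity score.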

HCC1937 [17] = conditions: 72 h
Procedure, shortened: as §3

HCC1143 [18] = conditions: 72 h
Procedure, shortened: as §3

SMILES	normalised viability (CAL-148 [1]; 30 nM) [%]	normalised viability (CAL-51 [2]; 30 nM) [%]	normalised viability (CAL-85-1 [3]; 30 nM) [%]	normalised viability (DU-4475 [4]; 30 nM) [%]	normalised viability (HDQ-P1 [5]; 30 nM) [%]	normalised viability (MDA-MB-453 [6]; 30 nM) [%]	drug sensitivity score (BT-474)	drug sensitivity score (BT-549)	drug sensitivity score (CAL-120)	drug sensitivity score (CAL-148 [7])	drug sensitivity score (CAL-51 [8])	drug sensitivity score (CAL-85-1 [9])	drug sensitivity score (DU-4475 [10])	drug sensitivity score (HCC1143 [11])	drug sensitivity score (HCC1599 [12])	drug sensitivity score (HCC1937 [13])	drug sensitivity score (HDQ-P1 [14])	drug sensitivity score (Hs578T)	drug sensitivity score (MDA-MB-231)	drug sensitivity score (MDA-MB-436)	drug sensitivity score (MDA-MB-453 [15])	drug sensitivity score (MDA-MB-468)	drug sensitivity score (MFM-223)	drug sensitivity score (SK-BR-3)	normalised viability (CAL-148 [1]; 300 nM) [%]	normalised viability (CAL-51 [2]; 300 nM) [%]	normalised viability (CAL-85-1 [3]; 300 nM) [%]	normalised viability (DU-4475 [4]; 300 nM) [%]	normalised viability (HDQ-P1 [5]; 300 nM) [%]	normalised viability (MDA-MB-453 [6]; 300 nM) [%]	EC50, CellTiter-Blue viability (HCC1599 [16]) [nM]	EC50, CellTiter-Blue viability (HCC1937 [17]) [nM]	EC50, CellTiter-Blue viability (HCC1143 [18]) [nM]
C=CC(=O)N1CCC[C@@H](n2nc(-c3ccc(Oc4ccccc4)cc3)c3c(N)ncnc32)C1	44.8	92.2	96	84.4	107	50.2	12.7	0	0	0	0	5.07	0	0	0	0	1.18	0	0	0	14.8	3.83	0	18.7	–	–	–	–	–	–	–	–	–
CCc1cncnc1N1CCN(Cc2nc3ccc(C(F)(F)F)cc3[nH]2)CC1	–	–	–	–	–	–	0	0	0	0	0	0	0	0	0	0	0	0	0	0	0	0	0	0	107	88.1	89.8	105	105	101	–	–	–
Cc1cnc(NC(=O)Nc2cc(Br)c(C)cc2OC[C@@H]2CNCCO2)cn1	91.7	95.7	92	106	68.4	94.3	0	0	0	0	0	0	0	0	2.32	5.26	0	1.59	0	3.49	0	0	0	1.9	–	–	–	–	–	–	221	121	–
NCCCNCCSP(=O)(O)O [Amifostine]	–	–	–	–	–	–	0	0	0	0	0	0	0	0	3.86	0	0	0	0	0	0	0	0	0	95.2	103	93.8	87.7	63.9	105	224	–	–
O=C(O)C1(C(=O)O)CCC1.[NH2-].[NH2-].[Pt+2] [Carboplatin]	–	–	–	–	–	–	0	0	0	2.02	1.03	0	0	0	0	0	0	0	0	0	1.79	0	1.39	0	106	106	86.1	87.6	87.6	107	–	–	–
COc1cc2c(Oc3ccc4[nH]c(C)cc4c3F)ncnc2cc1OCCCN1CCCC1 [Cediranib]	103	86	90.4	95	72.9	75.9	0	0	0	0	0	0	0	0	0	0	0	0	0	0	0	0	0	0	–	–	–	–	–	–	–	–	–
Cc1ccc(-c2cc(C(F)(F)F)nn2-c2ccc(S(N)(=O)=O)cc2)cc1 [Celecoxib]	–	–	–	–	–	–	0	0	0	0	0	0	0	0	0	2.89	4.34	0	0	3.91	1.65	0	0	0	88	97	70.2	96	72.2	92.5	–	329	–
Nc1nc(F)nc2c1ncn2[C@@H]1O[C@H](CO)[C@@H](O)[C@@H]1O [Fludarabine]	–	–	–	–	–	–	0	0.397	0	0	0	0	0	0	0	4.57	0	0	0	0	0	0	0	1.12	72.2	103	90.4	100	75.3	100	–	1320	–
N#Cc1ccc(C(c2ccc(C#N)cc2)n2cncn2)cc1 [Letrozole]	–	–	–	–	–	–	0	0	0	0	0	0	0	0	3.7	1.74	0	0	0	0	0	0	0	0	101	104	86.4	81.2	69.4	100	311	> 10000	–
C[C@H]1C[C@@H]2[C@H]([C@@H](O)C[C@@]3(C)[C@H]2CC[C@]3(O)C(=O)CO)[C@@]2(C)C=CC(=O)C=C12 [Methylprednisolone]	–	–	–	–	–	–	0	3.25	0	0	0	0	0	0	0	0	0	0	0	0	6.93	0	0	0	104	105	112	100	74.6	83.3	–	–	–
Nc1nc2[nH]cc(CCc3ccc(C(=O)N[C@@H](CCC(=O)O)C(=O)O)cc3)c2c(=O)[nH]1 [Pemetrexed]	–	–	–	–	–	–	0	0	1.61	0	0	5.19	0	3.58	0	0	0	0	0	0	0	0	0	9.22	106	110	107	93.6	83.7	102	–	–	> 10000
CC1=C(/C=C/C(C)=C/C=C/C(C)=C/C(=O)O)C(C)(C)CCC1 [Tretinoin]	–	–	–	–	–	–	0	0	0	4.65	0	0	0	0	3.35	0	0	0	0	0	0	0	0	7.44	74	96.2	96.6	91.1	94.9	91.5	133	–	–
Oc1ncc(N(CCCl)CCCl)c(O)n1 [Uracil mustard]	–	–	–	–	–	–	0	0	0	0	0	0	0	0	0	3.7	0	0	0	0	0	0	0	0	89.7	96.4	93.1	80.8	94.8	104	–	962	–
CCCS(=O)(=O)Nc1ccc(F)c(C(=O)c2c[nH]c3ncc(-c4ccc(Cl)cc4)cc23)c1F [Vemurafenib]	–	–	–	–	–	–	0	0	0	0	0	2.25	17.3	0	0	0.544	1.56	1.04	0	0	0	0	0	0	90.3	96.5	87.4	55.1	74.4	88.7	–	7820	–
